The text below walks through data of patent US9566363B2, “Microbicidal composite material” (priority 2013, dated 2017).

Read-outs that look alike come from different tables or passages of the source.

What all share (assay type): cell-based
One test has as its system C. albicans (ATCC 90028). In words: Zone of inhibition study (disc on agar plate). The conditions noted are these: radius around 12 mm disc, 24 hours at 37±1° C., triplicates, Flucanazole 25 μg/Disc. The procedure: (§1) The microbicidal composite material was tested in triplicates against E. coli (ATCC25922), S. aureus (ATCC 25923), P. aeruginosa (ATCC 9027) and C. albicans (ATCC 90028). The test material was cut as a 12 mm diameter disc and placed on 90 mm agar plates spread with 100 μl of approximately 10^8 CFU/ml of each bacterial strain and incubated at 37±1° C. for 24 hours. For a negative control, a filter paper disc containing no antibiotic was used. The zone of inhibition (Radius in mm) around the discs was measured using a transparent ruler. The results of this test are tabulated as under Table-5.

Test [1] deals with S. aureus (ATCC 25923). In words: Rate of microbicidal effect upon contact (CFU enumeration over time). The conditions noted are these: Staphylococcus aureus, 15 mm disc in approximately 10^8 CFU/ml, ciprofloxacin 1 μg/disc, read-out: killing percentage (inhibition of growth as percentage). The procedure: (§2) Briefly, 15 millimeter (mm) discs of the microbicidal composite material were cut and placed into 24 well plates containing approximately 10^8 CFU/ml in Nutrient broth of S. aureus (ATCC 25923) & P. aeruginosa (ATCC 9027) respectively and incubated at 37±1° C. At intervals of 1, 5, 15, 30 and 60 minutes, broth samples were drawn and plated on nutrient agar plates and incubated for 24 hours at 37±1° C. for CFU enumeration. Two reference standards (ref-1, and ref-2) [Ref-1: Reference standard-I, includes a test material which is a cotton gauze material bonded with non siloxane based QAS and Ref-2: Reference standard-II includes a test material with active ingredient as silver Test Item refers to the ‘Microbicidal Composite Material’] and a disc containing 1 μg/disc ciprofloxacin. The results are tabulated in table 8 and table 9 as percentage recovery over time. Percentage survival was calculated as number of CFU/ml in test substance/number of CFU/ml in control substance. The killing percentage was calculated as 100-residual percentage.
(§3) FIG. 4 and FIG. 5 show the inhibition of growth as percentage in the Y-axis compared to the untreated control group.

Test [2] concerns P. aeruginosa (ATCC 9027). The description is as above. The settings on record: Pseudomonas aeruginosa, 15 mm disc in approximately 10^8 CFU/ml, ciprofloxacin 1 μg/disc, read-out: killing percentage (inhibition of growth as percentage). The procedure: as §2, §3
For test [3], the system named is S. aureus. In words: Bio film prevention assay (crystal violet, OD 570 nm). The conditions noted are these: Staphylococcus aureus, 15 mm disc, Ciprofloxacin 1 ug/ml, versus control, read-out: % Inhibition, Percentage Effect in Bio film prevention assay. The procedure: (§4) 15 millimeters (mm) Discs of the microbicidal composite material were cut and placed into 24 well plates containing approximately 10^8 CFU/ml in Tryptic Soy Broth (TSB) of P. aeruginosa and S. aureus respectively and incubated at 37±1° C. for the Bio film Prevention assay. Similarly, 15 millimeter (mm) Discs of the microbicidal composite material were cut and placed into 24 well plates containing overnight grown culture of P. aeruginosa and S. aureus respectively in TSB and further incubated for 24 hours at 37±1° C. for the disruption assay.
(§5) Further, plain filter paper discs were placed in culture control (C) wells with approximately 10^8 CFU/ml of the above bacteria in Tryptic Soy Broth (TSB) for both the Prevention and Disruption assay. After incubation, the contents were removed and washed four times with Phosphate Buffer saline (pH 7.2). A 500 μl of 0.1% crystal violet stain was added to each well and incubated for 20 minutes at room temperature, washed, and dried. Subsequently, 500 μl of ethanol supplemented with 2% acetic acid was added to each well for 30 min. The Optical Density (OD) of stained adherent Bio film was obtained by using a Tecan plate reader at 570 nm wavelength. Percentage inhibitions in the respective assays were calculated in comparison to the control.

In test [4] the test system is P. aeruginosa. The test is described as above. The settings on record: Pseudomonas aeruginosa, 15 mm disc, Ciprofloxacin 1 ug/ml, versus control, read-out: % Inhibition, Percentage Effect in Bio film prevention assay. The procedure:
as §4, §5

Test [5] deals with S. aureus. The experiment in a line: Bio film disruption assay (crystal violet, OD 570 nm). The conditions noted are these: Staphylococcus aureus, overnight grown culture, 24 hours, 15 mm disc, Ciprofloxacin 1 ug/ml, read-out: % Inhibition, Percentage Effect in Bio film disruption assay. The procedure:
as §4, §5

For test [6], the system named is P. aeruginosa. The test is described as above. The settings on record: Pseudomonas aeruginosa, overnight grown culture, 24 hours, 15 mm disc, Ciprofloxacin 1 ug/ml, read-out: % Inhibition, Percentage Effect in Bio film disruption assay. The procedure:
as §4, §5

For test [7], the system named is S. aureus (ATCC 25923). The experiment in a line: Zone of inhibition study (disc on agar plate). The conditions noted are these: radius around 12 mm disc, 24 hours at 37±1° C., triplicates. The procedure:
as §1

For another test, the system named is E. coli (ATCC25922). In words: Zone of inhibition study (disc on agar plate). The settings on record: radius around 12 mm disc, 24 hours at 37±1° C., triplicates, Ciprofloxacin 1 μg/Disc. The procedure:
as §1

Test [8] concerns P. aeruginosa (ATCC 9027). In words: Zone of inhibition study (disc on agar plate). The settings on record: radius around 12 mm disc, 24 hours at 37±1° C., triplicates. The procedure:
as §1

In another test the test system is C. albicans. The experiment in a line: Residual microbes on ZOI disc after transfer to Nutrient broth. The procedure:
(§6) After 24 hours, the discs were transferred to Nutrient broth which was then incubated at 37±1° C. for another 24 hours. The broth contents were placed on Nutrient agar plates to measure the residual percentage of microbes present on the disc as a result of remaining on a lawn of bacteria overnight. Percentage survival was calculated as [number of CFU/ml in test substance/number of CFU/ml in control substance]. The killing percentage was calculated as 100-residual percentage. The results are tabulates as under Table-6.

Test [9] concerns S. aureus. The description is as above. The procedure:
as §6

Test [10] concerns P. aeruginosa. Described as above. The procedure:
as §6

Another test has as its system E. coli. Described as above. The procedure: as §6
[11] abbreviates: disc from ZOI assay in Nutrient broth for another 24 hours, CFU/ml versus control.

For `OC(Cn1cncn1)(Cn1cncn1)c1ccc(F)cc1F` [Flucanazole], the “ZOI (in mm) Mean” value in the test with C. albicans (ATCC 90028) is 3.60 mm.

A word on the inhibition: it is the drop in the measured response relative to a control, in per cent. Consider `O=C(O)c1cn(C2CC2)c2cc(N3CCNCC3)c(F)cc2c1=O` [Ciprofloxacin], for which the inhibition at 1 µg/disc with S. aureus (ATCC 25923) [1] (ATCC25923, 1 min, 1 minute) came to 0%; in the test with S. aureus (ATCC 25923) [1] (ATCC25923, 5 min, 5 minutes), 32%; in the test with S. aureus (ATCC 25923) [1] (ATCC25923, 0.25 h, 15 minutes), 86.2%; with S. aureus (ATCC 25923) [1] (ATCC25923, 0.5 h, 30 minutes), 79.1%; in the test with S. aureus (ATCC 25923) [1] (ATCC25923, 1 h, 60 minutes) it was 98.8%; in test [2] (ATCC9027, 1 min, 1 minute), 0%. Moreover, the inhibition at 1 µg/disc turned out to be 32.4% in [2] (ATCC9027, 5 min, 5 minutes); 87.4% in [2] (ATCC9027, 0.25 h, 15 minutes); 98% in test [2] (ATCC9027, 0.5 h, 30 minutes); 99.9% in [2] (ATCC9027, 1 h, 60 minutes). For the same compound, the inhibition at 1 µg/mL in the test with S. aureus [3] was determined as 93.1%; in the test with P. aeruginosa [4], 89.8%; with S. aureus [5], 88.2%; in the test on P. aeruginosa [6] it was 91.4%. The “ZOI (in mm) Mean” value amounted to 11.55 mm in the test on S. aureus (ATCC 25923) [7], 11.00 mm with E. coli (ATCC25922) and 9.50 mm in test [8]. Further, the Killing % was determined as 99.9902% with C. albicans (100-residual percentage), 99.9921% with S. aureus [9] (100-residual percentage), 99.9994% in the test on P. aeruginosa [10] (100-residual percentage) and 99.9997% in the test with E. coli (100-residual percentage). In addition, the Residual % in the test on C. albicans (setting [11]) worked out at 0.010%; in the test on S. aureus [9] (setting [11]), 0.008%; in the test on P. aeruginosa [10] (setting [11]), 0.001%; in the test with E. coli (setting [11]), 0.000%.
